# From ChEMBL document CHEMBL1201862, “PubChem BioAssay data set” (2004)
# Active and inactive are the calls of the source.
# Assays:
# Leucine aminopeptidase = biological target: T1, Leucine aminopeptidase (Plasmodium falciparum 3D7, UniProt Q8IL11); test: P. falciparum M17LAP inhibitors, primary screen, biochemical, fluorogenic H-Leu-NHMec substrate, 1536-well (AID 1619); assay type: functional
# T1 sequence (Q8IL11 whole entry): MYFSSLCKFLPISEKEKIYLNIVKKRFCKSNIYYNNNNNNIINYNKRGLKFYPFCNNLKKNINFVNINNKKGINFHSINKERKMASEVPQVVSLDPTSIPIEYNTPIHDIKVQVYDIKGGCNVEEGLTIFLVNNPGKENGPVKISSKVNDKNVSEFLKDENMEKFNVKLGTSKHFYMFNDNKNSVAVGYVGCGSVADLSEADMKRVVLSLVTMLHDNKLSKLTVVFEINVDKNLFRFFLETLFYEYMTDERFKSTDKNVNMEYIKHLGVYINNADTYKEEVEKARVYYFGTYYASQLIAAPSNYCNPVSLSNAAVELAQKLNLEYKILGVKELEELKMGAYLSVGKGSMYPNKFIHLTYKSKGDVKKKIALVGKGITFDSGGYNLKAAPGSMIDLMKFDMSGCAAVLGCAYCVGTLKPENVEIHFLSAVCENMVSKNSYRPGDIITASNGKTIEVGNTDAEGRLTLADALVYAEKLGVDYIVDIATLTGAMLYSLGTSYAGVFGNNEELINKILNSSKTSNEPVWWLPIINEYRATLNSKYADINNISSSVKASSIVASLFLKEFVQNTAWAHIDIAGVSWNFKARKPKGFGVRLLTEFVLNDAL
# Aspartyl aminopeptidase = biological target: T2, Aspartyl aminopeptidase (Plasmodium falciparum 3D7, UniProt Q8I2J3); test: Counterscreen for inhibitors of M1 and M17 aminopeptidases: QFRET-based biochemical high throughput dose response assay for inhibitors of the Plasmodium falciparum M18 Aspartyl Aminopeptidase (PFM18AAP). [Related PubChem assays: 1619 (Screening assay (M17LAP inhibitors).), 1445 (Screening assay (M1AAP inhibitors).)]
# T2 sequence (Q8I2J3 whole entry): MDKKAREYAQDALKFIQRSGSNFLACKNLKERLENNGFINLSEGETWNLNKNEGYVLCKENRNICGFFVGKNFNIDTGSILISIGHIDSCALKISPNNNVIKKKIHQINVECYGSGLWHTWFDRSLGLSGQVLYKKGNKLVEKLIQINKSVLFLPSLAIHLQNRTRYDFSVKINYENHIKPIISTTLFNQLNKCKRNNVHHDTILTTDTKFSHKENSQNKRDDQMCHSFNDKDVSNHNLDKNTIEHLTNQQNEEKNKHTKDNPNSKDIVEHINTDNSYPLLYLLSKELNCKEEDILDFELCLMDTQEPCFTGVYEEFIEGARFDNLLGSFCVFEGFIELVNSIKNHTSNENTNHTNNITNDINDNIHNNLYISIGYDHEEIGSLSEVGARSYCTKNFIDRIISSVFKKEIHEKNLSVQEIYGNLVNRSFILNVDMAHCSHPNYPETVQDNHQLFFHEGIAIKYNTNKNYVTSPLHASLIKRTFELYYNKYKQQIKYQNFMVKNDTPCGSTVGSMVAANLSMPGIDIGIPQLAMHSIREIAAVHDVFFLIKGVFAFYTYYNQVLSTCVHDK
# Procathepsin L = Procathepsin L (Homo sapiens, UniProt P07711); test: cathepsin L inhibitors, dose response, counter-screen for M1/M17 aminopeptidase inhibitor project, biochemical, QFRET, 1536-well (AID 2214)
# [1] = cytotoxicity toward DRD oncogenic fibroblasts, dose response, cell-based, non-viral oncogenic, luminescence (AID 1934); assay type: functional; settings: Homo sapiens
# BJ [2] = test: cells; assay type: functional, cell-based; settings: Homo sapiens
# BJ [3] = test: cytotoxicity toward BJ-TERT fibroblasts, dose response, cell-based, RAS-independent, luminescence (AID 1933); assay type: functional; settings: Homo sapiens
# BJ [4] = test: cytotoxicity toward BJ-TERT-LT-ST fibroblasts, dose response, cell-based, RAS-independent, luminescence (AID 1935); assay type: functional; settings: Homo sapiens;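 note: BJ fibroblasts immortalized with TERT plus LT and ST oncogenes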
# Prothrombin = Prothrombin (Homo sapiens, UniProt P00734); test: Thrombin 1536 HTS Dose Response Confirmation. [Related pubchem assays: 1046 (Thrombin 1536 HTS; hits were confirmed in this assay)]; assay type: functional
# Sequence of Procathepsin L (P07711 whole entry): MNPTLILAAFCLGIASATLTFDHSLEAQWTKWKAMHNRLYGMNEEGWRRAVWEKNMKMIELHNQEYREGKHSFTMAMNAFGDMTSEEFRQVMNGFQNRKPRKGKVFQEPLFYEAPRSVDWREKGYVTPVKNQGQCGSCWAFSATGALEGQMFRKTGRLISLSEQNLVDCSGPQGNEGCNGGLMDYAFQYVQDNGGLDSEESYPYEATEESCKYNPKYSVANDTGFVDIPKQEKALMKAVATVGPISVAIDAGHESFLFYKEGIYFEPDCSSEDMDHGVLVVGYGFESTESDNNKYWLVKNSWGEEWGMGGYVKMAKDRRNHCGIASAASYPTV
Structure (SMILES),IC50 (Leucine aminopeptidase),IC50 (Aspartyl aminopeptidase),IC50 (Procathepsin L),IC50 (Prothrombin),other results
c1ccc2c(CCNc3[nH]cnc4ncnc3-4)c[nH]c2c1,–,–,–,–,EC50 [1]: 30.5 µM (active); EC50 (BJ [2]): 53.2 µM (active); EC50 (BJ [3]): 24.4 µM (active); EC50 (BJ [4]): > 75 µM (not active)
O=C(CCC1CCCN(C(=O)C2(c3ccccc3)CC2)C1)N1CCN(c2ccccn2)CC1 (configuration not stated),–,–,–,> 50 µM (not active),–
N#Cc1c(NC(=O)C2CC(Cl)=CCC2C(=O)O)sc2c1CCCC2 (configuration not stated),< 1 µM (active),> 73.5 µM (not active),> 59.6 µM (not active),–,–

# More lines, main results first:
IC50 (Leucine aminopeptidase),IC50 (Aspartyl aminopeptidase),IC50 (Procathepsin L),IC50 (Prothrombin),Structure (SMILES),other results
3.25 µM (active),> 73.5 µM (not active),> 59.6 µM (not active),–,Cc1ccc(Nc2nnc(SCC(=O)NC(Cc3c[nH]c4ccccc34)C(=O)O)s2)cc1 (configuration not stated),–
–,–,–,0.0029 µM (active),CCC(=O)n1nc(-c2cccnc2)nc1NCc1ccccc1,–
